Source: patent publication US11229633B2, “Arimoclomol formulation” (Orphazyme A/S, priority 2014, dated 2022)
Several values for one entry are separate records, joined by “and”; a condition that tells them apart may be missing. Equal entries are not always repeated. Entries after “also recorded” stand apart in the source; their conditions may differ.

How the values were obtained:
[1] = in vivo; cited from earlier work
OATP1B3 = biological target: T1, OATP1B3 (Homo sapiens, UniProt Q9NPD5); experiment: Substrate statement, OATP1B3; type: in vitro ADME
T1 sequence (Q9NPD5 1-702): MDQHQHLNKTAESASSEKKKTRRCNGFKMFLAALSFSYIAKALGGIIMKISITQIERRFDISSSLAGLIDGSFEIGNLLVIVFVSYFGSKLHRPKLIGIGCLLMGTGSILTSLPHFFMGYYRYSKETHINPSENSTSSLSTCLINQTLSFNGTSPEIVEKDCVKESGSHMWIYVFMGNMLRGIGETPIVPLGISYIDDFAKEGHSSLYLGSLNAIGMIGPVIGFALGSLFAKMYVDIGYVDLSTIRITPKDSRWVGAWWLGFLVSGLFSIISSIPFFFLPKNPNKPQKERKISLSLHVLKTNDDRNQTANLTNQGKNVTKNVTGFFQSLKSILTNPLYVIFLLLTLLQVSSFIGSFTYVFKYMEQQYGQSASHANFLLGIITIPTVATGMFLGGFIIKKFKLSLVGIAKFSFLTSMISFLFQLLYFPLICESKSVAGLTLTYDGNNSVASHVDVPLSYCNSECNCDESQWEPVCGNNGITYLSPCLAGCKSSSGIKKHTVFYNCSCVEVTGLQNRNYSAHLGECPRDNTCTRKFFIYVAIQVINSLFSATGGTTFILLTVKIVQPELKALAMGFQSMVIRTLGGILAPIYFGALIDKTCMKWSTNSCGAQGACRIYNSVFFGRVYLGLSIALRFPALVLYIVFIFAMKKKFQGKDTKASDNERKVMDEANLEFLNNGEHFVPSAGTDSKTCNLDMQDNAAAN

human OCT2 = biological target: T2, human OCT2 (Homo sapiens, UniProt O15244); experiment: Uptake transporter inhibition assay, OCT2; type: in vitro ADME
T2 construct: expressed in transfected cells; host or cells: CHO (protocol UPT-CHO-OCT2-Metf; control: parental CHO-K1)
T2 sequence (O15244 1-555): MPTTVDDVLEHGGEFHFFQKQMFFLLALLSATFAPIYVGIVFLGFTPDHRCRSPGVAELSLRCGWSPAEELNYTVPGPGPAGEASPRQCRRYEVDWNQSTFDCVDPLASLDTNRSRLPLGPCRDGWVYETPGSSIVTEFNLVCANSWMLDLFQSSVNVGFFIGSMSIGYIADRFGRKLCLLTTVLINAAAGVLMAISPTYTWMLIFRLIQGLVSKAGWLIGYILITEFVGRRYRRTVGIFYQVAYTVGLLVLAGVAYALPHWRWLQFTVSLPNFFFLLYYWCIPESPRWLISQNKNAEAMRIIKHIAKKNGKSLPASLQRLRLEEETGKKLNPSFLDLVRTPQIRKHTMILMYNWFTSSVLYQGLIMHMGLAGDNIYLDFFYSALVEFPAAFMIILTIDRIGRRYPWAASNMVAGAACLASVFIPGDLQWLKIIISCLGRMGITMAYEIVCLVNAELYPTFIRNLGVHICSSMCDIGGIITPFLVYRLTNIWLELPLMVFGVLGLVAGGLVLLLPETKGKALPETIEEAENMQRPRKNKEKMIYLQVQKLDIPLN
Procedure: (§1) Uptake experiments were performed using CHO, MDCKII, or HEK293 cells stably expressing the respective uptake transporters.
(§2) Cells were cultured at 37±1° C. in an atmosphere of 95:5 air:CO2 and were plated onto standard 96-well tissue culture plates at the cell number described in table 4.
(§3) Before the experiment, the medium was removed and the cells were washed twice with 100 μl of HK buffer at pH 7.4 (prepared from Sigma chemicals, Sigma-Aldrich, St Louis, Mo.). Uptake experiments were carried out at 37±1° C. in 50 μl of HK buffer (pH 7.4) containing the probe substrate and the TA or vehicle control (water).
(§4) After the experiment, cells were washed twice with ice cold, 100 μl of HK buffer and lysed with 50 μl of 0.1 M NaOH (1 mM CaCl2) in 5% SDS in the case of OATP1B3). Fluo-3 transport (OATP1B3) was determined by measuring fluorescence using 485 nm and 520 nm as the excitation and emission wavelengths, respectively. Radiolabelled probe substrate transport was determined by measuring an aliquot (35 μl) from each well for liquid scintillation counting.
Uptake of the probe substrate in control cells provided background activity values for all data points. […]
The amount of translocated probe substrate was determined for each well in cpm or RFU. Relative activities were calculated from the equation: […]
(§5) In uptake transporter inhibition assays, the IC50 (μM) was calculated, where applicable. […]

human OAT1 = biological target: T3, human OAT1 (Homo sapiens, UniProt Q4U2R8); experiment: Uptake transporter inhibition assay, OAT1; type: in vitro ADME; design: key to maximum inhibition: NIO: No interaction observed; conditions: for maximum inhibition: 0.3-300 μM
T3 construct: expressed in transfected cells; host or cells: CHO (protocol UPT-CHO-OAT1-Tenofovir; control: parental CHO-K1)
T3 sequence (Q4U2R8 1-563): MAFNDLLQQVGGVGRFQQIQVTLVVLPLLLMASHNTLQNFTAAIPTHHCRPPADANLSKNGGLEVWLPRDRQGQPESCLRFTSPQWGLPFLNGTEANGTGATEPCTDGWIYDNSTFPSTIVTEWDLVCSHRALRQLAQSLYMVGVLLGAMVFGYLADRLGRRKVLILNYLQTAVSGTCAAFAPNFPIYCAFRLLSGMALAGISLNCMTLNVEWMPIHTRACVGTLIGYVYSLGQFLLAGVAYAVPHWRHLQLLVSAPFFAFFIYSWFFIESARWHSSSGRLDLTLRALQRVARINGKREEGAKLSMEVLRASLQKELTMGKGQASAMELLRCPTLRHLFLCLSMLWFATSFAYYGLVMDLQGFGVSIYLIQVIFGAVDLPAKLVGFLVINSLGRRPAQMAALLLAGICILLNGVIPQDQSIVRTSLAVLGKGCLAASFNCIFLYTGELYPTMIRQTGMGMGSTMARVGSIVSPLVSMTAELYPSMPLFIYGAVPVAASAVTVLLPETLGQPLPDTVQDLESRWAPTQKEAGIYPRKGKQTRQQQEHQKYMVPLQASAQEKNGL
Procedure: as §1, §2, §3, §4
Uptake of the probe substrate in control cells provided background activity values for all data points. Incubation without TA or reference inhibitor (solvent only) provided 100% activity values. A reference inhibitor served as positive control for inhibition.
The amount of translocated probe substrate was determined for each well in cpm or RFU. Relative activities were calculated from the equation:
[formula] A: amount of translocated substrate in the presence of TA in transfected cells B: amount of translocated substrate in the presence of TA in control cells C: amount of translocated substrate in the presence of solvent in transfected cells D: amount of translocated substrate in the presence of solvent in control cells Calculation of Fold Accumulation Values
as §5

Compound: [O-][n+]1cccc(C(Cl)=NOCC(O)CN2CCCCC2)c1 (stereo not shown) [Arimoclomol, N-[2-hydroxy-3-(1-piperidinyl)-propoxy]-pyridine-1-oxide-3-carboximidoyl chloride]
- plasma half-life [1]: 2 to 4 h
- Substrate of the transporter (in words) (OATP1B3): not a substrate
- Inhibitor of the OCT2 transporter (in words) (human OCT2): inhibitor
- IC50 (human OCT2; OCT2-mediated metformin (10 μM) uptake, CHO cells): 10 µM and 9.72 µM
- maximum inhibition (human OAT1; Table 2): NIO
- maximum inhibition (human OAT1; Table 5): NIO
- Influence on OAT1-mediated probe substrate accumulation (in words) (human OAT1; applied concentrations): did not influence; also recorded: not an inhibitor
